Laboratory results: paper PMC6689975, “Novel Cell Wall Antifungals Reveal a Special Synergistic Activity in pbr1 Mutants Resistant to the Glucan Synthesis Antifungals Papulacandins and Echinocandins” (Frontiers in Microbiology, 2019)
In brackets after ≈: the same amount, converted by molar mass.

What follows are molecules tested on C. albicans wild-type (assay: microbe, parasite or virus in culture). Settings: Candida albicans, 48 h, read-out: MIC.
Parameters: species or system whole yeast cells; macro tube broth dilution MIC in YEPD at 30 C, visual clearness of medium
Protocol: (§1) Standard YEPD (Yeast Extract, Peptone, Dextrose) ([Sherman, 1990]), YEPD+S (YEPD with 1.2M sorbitol), YES (Yeast Extract, Dextrose and Supplements of Adenine, Histidine, Leucine, Uracil and Lysine) ([Alfa et al., 1993]) and YES+S (YES with 1.2 M sorbitol) ([Ribas et al., 1991]; [Ishiguro et al., 1997]), media were used for determination of MIC values of the tested compounds. A stock solution of 10 mg/ml of each tested compounds was prepared in DMSO and serial dilutions in DMSO were prepared. The final concentration of DMSO was 2% in the YEPD medium. […] The serial dilutions of compounds were dispensed into test tubes with 1 ml of YEPD or YEPD+S to make final concentrations of 200, 100, 50, 25, 12.5, 6.26, 3.125, 1.6, 0.8 and 0.4 μg/ml. The tested yeast strains were previously grown in YEPD, YEPD+S, YES or YES+S agar plates at 30°C for 48 h. For inoculation of YEPD or YEPD+S macro test tubes a suspension of tested fungus was produced with 10^5 cfu/ml (cfu - colony forming unit). 10 μl of suspension was used for inoculation of each tube. After 48 h incubation at 30°C the tubes were checked. The MIC value is the lowest concentration of the tested compound that could inhibit the fungal growth and the medium remained clear. From each tube 10 μl culture was plated on YEPD agar medium to check the contamination. The MIC tests were carried out in three parallels. The screening of the first generation of isochromanones was carried out in YEPD and YEPD+S media (1E-16E). The fungal strains analyzed are: C. albicans wild-type ATCC 26555, SC5314 and ATCC 90028, S. cerevisiae wild-type CVX12-3A and pbr1-1 mutant, and S. pombe wild-type (972h^–), pbr1-8 mutant and pbr1-6 mutant. The bold numbers in Tables 4–6 indicate the more efficient compounds. […] The weak or moderate efficacy against the C. albicans wild-type strains was observed by some substances (3E, 4Z, 5Z, 10E, 15, and 16E). The efficiency toward the S. pombe pbr1-6 mutant strain was the highest inhibitory activity, except 7E, 11E, 12 and 14E. […] As regards the other S. pombe pbr1-8 mutant strain, the antifungal activity of the tested compounds was slightly lower, but the substances with the best activity are partly identical to the best compounds mentioned with pbr1-6, (i.e., 1E, 3E, 4Z, 5Z).

Row | Structure (SMILES) | MIC [µg/mL]
1 | COc1cccc(/C=C2/C(=O)OCc3ccccc32)c1OC [9E] | 100 (≈ 337 µM)
2 | O=C1OCc2ccccc2/C1=C\c1ccc(C(=O)O)cc1 [2E] | 200 (≈ 714 µM)

Tested on: C. albicans wild-type
Test: microbe, parasite or virus in culture
Parameters: species or system whole yeast cells; macro tube broth dilution MIC in YEPD at 30 C, visual clearness of medium
Settings: Candida albicans, 48 h, read-out: MIC
Remark: another data set of the same source
Protocol: as §1

Row | Structure (SMILES) | MIC [µg/mL]
3 | COc1cccc(/C=C2/C(=O)OCc3ccccc32)c1OC [9E] | 100 (≈ 337 µM)
4 | O=C1OCc2ccccc2/C1=C\c1ccc(C(=O)O)cc1 [2E] | 200 (≈ 714 µM)

These molecules were tested on T1, S. cerevisiae wild-type CVX12-3A (assay: microbe, parasite or virus in culture). Settings: Saccharomyces cerevisiae, 48 h, read-out: MIC.
T1 construct: CVX12-3A
Parameters: species or system whole yeast cells; macro tube broth dilution MIC in YEPD at 30 C, visual clearness of medium
Protocol: as §1

Row | Structure (SMILES) | MIC [µg/mL]
5 | COc1cccc(/C=C2/C(=O)OCc3ccccc32)c1OC [9E] | 100 (≈ 337 µM)
6 | O=C1OCc2ccccc2/C1=C\c1ccc(C(=O)O)cc1 [2E] | 100 (≈ 357 µM)

The molecules below were run on T2, S. pombe wild-type 972 h- (assay: microbe, parasite or virus in culture). Settings: Schizosaccharomyces pombe, 48 h, read-out: MIC.
T2 construct: 972 h-
Parameters: species or system whole yeast cells; macro tube broth dilution MIC in YEPD at 30 C, visual clearness of medium
Protocol: as §1

Row | Structure (SMILES) | MIC [µg/mL]
7 | COc1cccc(/C=C2/C(=O)OCc3ccccc32)c1OC [9E] | 50 (≈ 169 µM)
8 | O=C1OCc2ccccc2/C1=C\c1ccc(C(=O)O)cc1 [2E] | 50 (≈ 178 µM)

Tested on: C. albicans wild-type
Test: microbe, parasite or virus in culture
Parameters: species or system whole yeast cells; macro tube broth dilution MIC in YEPD at 30 C, visual clearness of medium
Settings: Candida albicans, 48 h, read-out: MIC
Remark: another data set of the same source
Protocol: as §1

Row | Structure (SMILES) | MIC [µg/mL]
9 | COc1cccc(/C=C2/C(=O)OCc3ccccc32)c1OC [9E] | 100 (≈ 337 µM)
10 | O=C1OCc2ccccc2/C1=C\c1ccc(C(=O)O)cc1 [2E] | 200 (≈ 714 µM)

What follows are molecules tested on C. albicans wild-type (assay: microbe, parasite or virus in culture). Settings: Candida albicans, read-out: MIC.
Parameters: species or system whole yeast cells; micro-culture broth dilution MIC in YES at 30 C, turbidity, complete growth inhibition
Protocol: (§2) Standard YEPD (Yeast Extract, Peptone, Dextrose) ([Sherman, 1990]), YEPD+S (YEPD with 1.2M sorbitol), YES (Yeast Extract, Dextrose and Supplements of Adenine, Histidine, Leucine, Uracil and Lysine) ([Alfa et al., 1993]) and YES+S (YES with 1.2 M sorbitol) ([Ribas et al., 1991]; [Ishiguro et al., 1997]), media were used for determination of MIC values of the tested compounds. A stock solution of 10 mg/ml of each tested compounds was prepared in DMSO and serial dilutions in DMSO were prepared. The final concentration of DMSO was 2% in the YEPD medium. […] The serial dilutions of compounds were dispensed into test tubes with 1 ml of YEPD or YEPD+S to make final concentrations of 200, 100, 50, 25, 12.5, 6.26, 3.125, 1.6, 0.8 and 0.4 μg/ml. The tested yeast strains were previously grown in YEPD, YEPD+S, YES or YES+S agar plates at 30°C for 48 h. Micro-culture assays of large numbers of samples were analyzed as described) ([Martins et al., 2011]). Essentially early log-phase cells were grown in YEPD, YEPD+S, YES or YES+S (1.2 M sorbitol) medium at 30°C, and diluted to cell density of 4 X 10^6 cells/ml in YEPD, YEPD+S, YES or YES+S medium and aliquots of 100 μl were dispensed into each small test tube (3 ml test tube size). Then, another 100 μl of YEPD, YEPD+S, YES or YES+S with the corresponding dilution of each compound at 2X concentration (4% DMSO) was added. The final volume was 200 μl, with the cells diluted to of 2 X 10^6 cells/ml and each compound diluted to 1X final concentration, containing increasing concentrations of antifungal (0, 1, 2, 5, 10, 20, 50, 100 and 200 μg/ml) or an equivalent volume of solvent (2% DMSO). The cells were grown at 30°C in an orbital roller and turbidity was analyzed after 24 and 48 h of incubation. The MIC was determined as the minimal concentration of tested compound that produced complete cell growth inhibition and kept the medium clear. The MIC values were calculated from at least three independent experiments. Next, the first generation of isochromanones (1E-16E) was also screened in YES medium (Table 5) and exerted a weaker antifungal potency than in YEPD medium and also than the second family of isochromanones in YES medium (17E-30E) (Table 6). The strains are partly different from the previously mentioned ones (Tables 5, 6) analyzing two wild type C. albicans strains because they behaved similarly in YEPD. It is remarkable that there was no effect against either the C. albicans, the S. cerevisiae, or the S. pombe wild-type strains, except with 30E.

Row | Structure (SMILES) | MIC [µg/mL]
11 | COc1cccc(/C=C2/C(=O)OCc3ccccc32)c1OC [9E] | > 200
12 | O=C1OCc2ccccc2/C1=C\c1ccc(C(=O)O)cc1 [2E] | > 200

Same assay, conditions: Candida albicans; YES medium, C. albicans strain f

Row | Structure (SMILES) | MIC [µg/mL]
13 | COc1ccc(/C=C2/C(=O)OCc3ccccc32)cc1 [21E] | > 200

Same assay, conditions: Candida albicans; YES medium, C. albicans strain g

Row | Structure (SMILES) | MIC [µg/mL]
14 | COc1ccc(/C=C2/C(=O)OCc3ccccc32)cc1 [21E] | > 200

Each molecule was assayed on T1, S. cerevisiae wild-type CVX12-3A (assay: microbe, parasite or virus in culture). Settings: Saccharomyces cerevisiae, read-out: MIC.
Parameters: species or system whole yeast cells; micro-culture broth dilution MIC in YES at 30 C, turbidity, complete growth inhibition
Protocol: as §2

Row | Structure (SMILES) | MIC [µg/mL]
15 | COc1cccc(/C=C2/C(=O)OCc3ccccc32)c1OC [9E] | > 200
16 | O=C1OCc2ccccc2/C1=C\c1ccc(C(=O)O)cc1 [2E] | > 200

Same assay, conditions: Saccharomyces cerevisiae; YES medium

Row | Structure (SMILES) | MIC [µg/mL]
17 | COc1ccc(/C=C2/C(=O)OCc3ccccc32)cc1 [21E] | > 200

These molecules were tested on T2, S. pombe wild-type 972 h- (assay: microbe, parasite or virus in culture). Settings: Schizosaccharomyces pombe, read-out: MIC.
Parameters: species or system whole yeast cells; micro-culture broth dilution MIC in YES at 30 C, turbidity, complete growth inhibition
Protocol: as §2

Row | Structure (SMILES) | MIC [µg/mL]
18 | COc1cccc(/C=C2/C(=O)OCc3ccccc32)c1OC [9E] | > 200
19 | O=C1OCc2ccccc2/C1=C\c1ccc(C(=O)O)cc1 [2E] | > 200

Same assay, conditions: Schizosaccharomyces pombe; YES medium

Row | Structure (SMILES) | MIC [µg/mL]
20 | COc1ccc(/C=C2/C(=O)OCc3ccccc32)cc1 [21E] | > 200

The molecules below were run on Candida albicans C. a.^g (Table 6) (assay: microbe, parasite or virus in culture). Settings: 48 h, YES + 1.2 M sorbitol.
Parameters: species or system yeast; micro tube dilution MIC in YES (± 1.2 M sorbitol), complete growth inhibition by turbidity
Protocol: as §2, with “experiments.” for “experiments. Next, the first generation of isochromanones (1E-16E) was also screened in YES medium (Table 5) and exerted a weaker antifungal potency than in YEPD medium and also than the second family of isochromanones in YES medium (17E-30E) (Table 6). The strains are partly different from the previously mentioned ones (Tables 5, 6) analyzing two wild type C. albicans strains because they behaved similarly in YEPD. It is remarkable that there was no effect against either the C. albicans, the S. cerevisiae, or the S. pombe wild-type strains, except with 30E.”

Row | Structure (SMILES) | MIC [µg/mL]
21 | COc1ccc(/C=C2/C(=O)OCc3ccccc32)cc1 [21E] | > 200

What follows are molecules tested on T3, Saccharomyces cerevisiae S. c.^d (wild-type CVX12-3A) (assay: microbe, parasite or virus in culture). Settings: 48 h, YES + 1.2 M sorbitol.
T3 construct: CVX12-3A
Parameters: species or system yeast; micro tube dilution MIC in YES (± 1.2 M sorbitol), complete growth inhibition by turbidity
Protocol: as §2, with “experiments.” for “experiments. Next, the first generation of isochromanones (1E-16E) was also screened in YES medium (Table 5) and exerted a weaker antifungal potency than in YEPD medium and also than the second family of isochromanones in YES medium (17E-30E) (Table 6). The strains are partly different from the previously mentioned ones (Tables 5, 6) analyzing two wild type C. albicans strains because they behaved similarly in YEPD. It is remarkable that there was no effect against either the C. albicans, the S. cerevisiae, or the S. pombe wild-type strains, except with 30E.”

Row | Structure (SMILES) | MIC [µg/mL]
22 | COc1ccc(/C=C2/C(=O)OCc3ccccc32)cc1 [21E] | > 200

The molecules below were run on Candida albicans C. a.^f (Tables 5, 6) (assay: microbe, parasite or virus in culture). Settings: 48 h, YES + 1.2 M sorbitol.
Parameters: species or system yeast; micro tube dilution MIC in YES (± 1.2 M sorbitol), complete growth inhibition by turbidity
Protocol: as §2, with “experiments.” for “experiments. Next, the first generation of isochromanones (1E-16E) was also screened in YES medium (Table 5) and exerted a weaker antifungal potency than in YEPD medium and also than the second family of isochromanones in YES medium (17E-30E) (Table 6). The strains are partly different from the previously mentioned ones (Tables 5, 6) analyzing two wild type C. albicans strains because they behaved similarly in YEPD. It is remarkable that there was no effect against either the C. albicans, the S. cerevisiae, or the S. pombe wild-type strains, except with 30E.”

Row | Structure (SMILES) | MIC [µg/mL]
23 | COc1ccc(/C=C2/C(=O)OCc3ccccc32)cc1 [21E] | > 200

What follows are molecules tested on T4, Schizosaccharomyces pombe S. p.^a (wild-type 972 h-) (assay: microbe, parasite or virus in culture). Settings: 48 h, YES + 1.2 M sorbitol.
T4 construct: 972 h-
Parameters: species or system yeast; micro tube dilution MIC in YES (± 1.2 M sorbitol), complete growth inhibition by turbidity
Protocol: as §2, with “experiments.” for “experiments. Next, the first generation of isochromanones (1E-16E) was also screened in YES medium (Table 5) and exerted a weaker antifungal potency than in YEPD medium and also than the second family of isochromanones in YES medium (17E-30E) (Table 6). The strains are partly different from the previously mentioned ones (Tables 5, 6) analyzing two wild type C. albicans strains because they behaved similarly in YEPD. It is remarkable that there was no effect against either the C. albicans, the S. cerevisiae, or the S. pombe wild-type strains, except with 30E.”

Row | Structure (SMILES) | MIC [µg/mL]
24 | COc1ccc(/C=C2/C(=O)OCc3ccccc32)cc1 [21E] | > 200
